Measurements from patent publication US8722745B2, “Sulfur-containing compound, method of preparation and pharmaceutical uses thereof” (National Sun Yat-Sen University, priority 2007, dated 2014).

Assays:
[1] = system: multiple sclerosis (EAE); test: Multiple sclerosis (EAE) animal model, neural function score; format: in vivo
Method: Female Lewis rats weighted between 280 to 300 g were used in the multiple sclerosis (MS, also called Encephalomyelitis; EAE) model (Boulerne et al, J Neurosci. 2002; 22:123-32, 2004). The animals were anesthetized with 2.5% isoflurane, and 50 μL of Complete Freund's Adjuvant (Sigma) containing 1 mg inactivated Mycobacterium tuberculosis H37Ra and 50 μg guinea pig myelin basic protein (MBP) was subcutaneous injected from the posterior paw for 100% immunizing In the control group, the rats were injected with Freund's complete adjuvant containing inactivated Mycobacterium tuberculosis H37Ra and without guinea pig myelin basic protein. The ill was observed on day 11 to 12 after immunization, and reached the peak on day 14 to 15.
The neural function was assessed on day 15. The scores represents: 0: no clinical symptom; 1: function loss in the tail; 2: partial paralysis in the posterior limbs; 3: complete paralysis in the posterior limbs; 4: paralysis in the four limbs; 5: complete paralysis in the whole body; 6: death (Liu et al. J Neuroimmunol. 2003; 139:27-35, 1998).
The rats were divided into four groups, and each group containing four animals: • Control group: Rats were subcutaneous injected from the posterior paw with Freund's complete adjuvant containing inactivated Mycobacterium tuberculosis H37Ra and without guinea pig myelin basic protein. 20 μL of normal saline was administered through the intrathecal catheter twice a day for five days from day 7. • Multiple sclerosis group: Rats were subcutaneous injected from the posterior paw with Freund's complete adjuvant containing inactivated Mycobacterium tuberculosis H37Ra and guinea pig myelin basic protein. 20 μL of normal saline was administered through the intrathecal catheter twice a day for five days from day 7. • Multiple sclerosis with treatment group: Rats were subcutaneous injected from the posterior paw with Freund's complete adjuvant containing inactivated Mycobacterium tuberculosis H37Ra and guinea pig myelin basic protein. […]

[2] = system: thermal hyperalgesia after sciatic nerve chronic constriction injury; test: Neuropathic pain model, sciatic nerve chronic constriction injury, thermal hyperalgesia; format: in vivo, rat
Method: The operation was performed according to the description of Wen et al, Brain Res 963:1-7, 2003. The dura mater of male Wistar rats was opened near the foramen magnum and planted with an 8.5-cm PE tube (outer diameter: 0.014 inches, inner diameter: 0.008 inches). The drugs worked near the lumbar, and the end of injection was fixed on the head. Animals those had deficient in motor or blood in the intrathecal catheter were abandoned.
The model was established similar to the sciatic nerve chronic constriction injury (CCI) established by Bennett and Xie (Pain 33:87-107, 1988). 4-O cat cut line was used to tie four nodes on the sciatic nerve. After one week, the behavior of thermal hyperalgesia was stimulated. The behavior of thermal hyperalgesia was assayed similar to the method established by Hargreaves et al (Pain 32:77-88, 1988) and recorded with an analgesiometer (IITC Inc., Woodland Hills, Calif., USA) for assessing the effect of the compound represented by formula 3 on neuropathic pain relief.
MPE(%)=(latency after drug administered−basal latency)/(30 seconds−basal latency)×100%
If a higher MPE was obtained, the effect of pain relief was better, and the maximum value of MPE was 100.

[3] = system: inducible nitric oxide synthase; test: Protein expression of inducible nitric oxide synthase in LPS-stimulated RAW 264.7 macrophages (Western blot); format: cell-based, mouse
Method: (§1) A mouse macrophage cell line, RAW 264.7, purchased from the American Type Culture Collection (ATCC , No TIB-71) was chosen in the in vitro model. The cells were cultured in DMEM (Dulcbecco/s Modified Eagle medium) containing 10% fetal bovine serum (FBS) and penicillin G (100 U/mL) and streptomycin (100 μg/mL) at 37° C. and 5% CO2. When reaching 80% confluence, the cells were subcultured with trypsin. The cells were subjected to an anti-inflammation assay after subcultured for 36 hours. 3×10^6 RAW264.7 cells were cultured in a 10-cm culture dish and administered with lipopolysaccharide (LPS, 0.01 μg/mL; Sigma L2654). After 16 hours, the cells were collected. […]
(§2) The collected RAW264.7 cells were dissolved with 200 μL of 4° C. lysis buffer (50 mM Tris [pH 7.5], 150 mM NaCl, 1% TritonX-100, 0.1 mM EDTA, 0.1 mM EGTA, 10 μg PMSF, 1 μg/mL aprotinin, 20 mM NaF, and 0.2 mM Na3VO4). […] The supernatant was assayed with Bio-Rad DC protein assay kit (Bio-Rad Laboratories, Hercules, Calif., USA) and the absorbance was read with an ELISA reader (Thermo Electron Corporation, USA) for estimating the protein contents. […] After washed with TTBS for three times, an enhanced chemiluminescence detection kit was used for reading with the PVDF membrane and exposed with an X-ray film (Kodak X-OMAT LS, Kodak, Rochester, N.Y., USA) for detecting the protein expression. […]

[4] = system: cyclooxygenase-2; test: Protein expression of cyclooxygenase-2 in LPS-stimulated RAW 264.7 macrophages (Western blot); format: cell-based, mouse
Method: as §1, §2

[5] = system: β-actin; test: Protein expression of β-actin (internal control) in LPS-stimulated RAW 264.7 macrophages; format: cell-based, mouse; details: 50 μM compound
Method: as §1, §2

[6] = system: neointimal proliferation of the carotid artery; test: Atherosclerosis model in rat, balloon-induced angioplasty of carotid artery; format: in vivo
Method: The operation was performed according to the references of Berger et al (Atherosclerosis 175:229-234, 2004) and Chen et al (Naunyn Schmiedebergs Arch Pharmacol 368:127-133, 2003). The animals were anesthetized with 2.5% isoflurane (mixed air and oxygen of 1:1) with a 2F probe balloon catheter. The catheter was pre-filled with saline solution and positioned from the external carotid artery of the right neck into the right common carotid artery. When the catheter entered about 1.5 cm of the right common carotid artery, the balloon was inflated and rubbed forward and backward three times. Then, the catheter was removed and the external carotid artery was ligated and the incision was sutured. […] The samples were observed under an optical microscopy and photoed. The thickness of neointimal proliferation was determined. The right side of each rat was taken as the experiment group and the left side was as the control group.
In the experiment group, the compound represented by formula 3 was administered.

CC(=O)CCS(=O)(=O)CCO [formula 3]
neural function score (0-6), multiple sclerosis with treatment group ([1]; 10 μg/20 μL intrathecal twice a day for five days from day 7, assessed on day 15, female Lewis rats): 0.5±0.3 | progress of multiple sclerosis ([1]; administered through the intrathecal catheter): significantly represses the progress of multiple sclerosis | neural function score (0-6), normal rats with treatment group ([1]; normal rats, 10 μg/20 μL intrathecal twice a day for five days from day 7): 0 | 50% effective dose (ED50) calculated from MPE ([2]; intrathecal injection, CCI rats, paw withdrawal latency): 0.75 ± 0.05 µg | thermal hyperalgesia inhibition ([2]; intrathecal injections of 0.1, 0.5, 1, or 5 μg): significant effect on thermal hyperalgesia inhibition | inhibition of inducible nitric oxide synthase of macrophages ([3]; 10 to 30 μM compound, LPS 0.01 μg/mL): significantly inhibits | IC50 ([3]; RAW 264.7 macrophages stimulated by LPS 0.01 μg/mL, 16 hours, protein expression, read-out: 50% inhibition concentration (IC50), inducible nitric oxide synthase): 3.64 ± 0.28 µM | inhibition of cyclooxygenase-2 of macrophages ([4]; 5 to 30 μM compound, LPS 0.01 μg/mL): significantly inhibits | IC50 ([4]; RAW 264.7 macrophages stimulated by LPS 0.01 μg/mL, 16 hours, protein expression): 32.1 ± 8.1 µM | effect on protein expression of β-actin [5]: inhibits the protein expression of β-actin | neointimal proliferation (preliminary result) ([6]; administered once a day): significantly improved | atherosclerosis, numeralized intima/media ([6]; hypodermic injection 3 mg/kg a day from day 10 to 24 after operation): improves atherosclerosis significantly | neointimal proliferation stimulated by balloon-induced angioplasty ([6]; hypodermic injection 3 mg/kg a day from day 10 to 24 after operation, slices on day 24): improves the neointimal proliferation
